According to patent US10253274B2, “Compounds and methods for inhibiting corrosion in hydrocarbon processing units” (General Electric Company, priority 2012, dated 2019):
Where two headings read alike, the source gives them in different places.

How the values were obtained:
[1] = Neutralization efficiency by two-phase titration (pH at amine titrant concentration); assay type: physicochemical; settings: 100° C.; for Neutral. Efficiency pH at 250 ppm: 250 ppm amine titrant; for Neutral. Efficiency pH at 500 ppm: 500 ppm amine titrant; for Neutral. Efficiency pH at 1000 ppm: 1000 ppm amine titrant
Method: Several amines were tested to determine their efficiencies in neutralizing acidic species and reducing deposits of hydrochloride and amine salts. The neutralization efficiency of these amines was tested using two-phase titration. For each amine tested, a titrand (100 ml) was placed in a flask. The titrand was designed to simulate an initial condensate and comprised 90 vol % naphtha and 10 vol % acidic water. The titrand was heated to 100° C. and maintained at that temperature while amine titrant was added to the flask.
A second set of tests were performed using some of the effective amines above. Additional tertiary amines were also tested and found to be effective. The additional tertiary amines were N-methyl piperidine, 2-dimethylamino 2-methyl 1-propanol (“DMAMP”) in an azeotropic solution comprising 80 wt % amine, N,N,N′,N′-tetramethyldiamino methane (“TMMD”), dimethyl tertiary butanolamine (“DMTBA”), and dimethyl methoxypropylamine (“DMMOPA”). The neutralization efficiency of these amines was tested using two-phase titration. For each amine tested, a titrand (100 ml) was placed in a flask. The titrand was designed to simulate an initial condensate and comprised 90 vol % naphtha and 10 vol % acidic water. The titrand was heated to 100° C. and maintained at that temperature while amine titrant was added to the flask. The tests were repeated 3 times in the second set of tests. The data in Table 2 are the averages of the 3 repeated tests.

[2] = Amine-HCl salt precipitation potential index (Salt PPI) relative to ammonia salt; assay type: physicochemical
From the text: Without limiting this specification to any particular theory of operation, the overall efficiency of a given amine may be predicted upon assessment of several factors. One such factor is the amine-HCl salt precipitation potential index (“Salt PPI”). The Salt PPI may also be known by those in the art as the salt volatility index. These indices are merely a comparison of the precipitation potential of the amine salt to the salt of a typical neutralizing compound used in hydrocarbon refining, ammonia.
Salt PPI may be calculated from the equation: […]
If one were to substitute the vapor pressure of ammonia for the vapor pressure of the amine in the equation, the Salt PPI would be 1.0. Effective amines are those that are as good, if not better than the typical additive, ammonia. Thus, effective amines would have a Salt PPI of equal to or less than 1.0. Other neutralizers commonly used in hydrocarbon refining are trimethylamine and N-methylmorpholine.

[3] = pKa of the amine; assay type: physicochemical
From the text: Another factor indicative of the overall efficiency of a given amine is the logarithm of the acid dissociation constant, pKa. Generally, amines with higher pKa values are more efficient neutralizers. Accordingly, in another embodiment, the treatment composition may comprise an amine with a pKa equal to or greater than about 5.0.

[4] = Boiling point; settings: Table 2
[5] = Solubility Oil/Water
[6] = Table 1, average over 225 to 300° F., ammonia benchmark = 1.0
[7] = Table 2, second set, averages of 3 repeated tests
[8] = Table 2, average over 225 to 300° F., ammonia benchmark = 1.0
[9] = Table 3, exemplary treatment composition
[10] = Table 4, exemplary treatment composition

Row | Neutral. Efficiency pH at 250 ppm ([1]; Table 1, first set of tests) | Neutral. Efficiency pH at 500 ppm ([1]; Table 1, first set of tests) | Neutral. Efficiency pH at 1000 ppm ([1]; Table 1, first set of tests) | Salt PPI [2, 6] | pKa ([3]; Table 1, read-out: pKa) | pKa ([3]; Table 1) | Neutral. Efficiency pH at 250 ppm [1, 7] | Neutral. Efficiency pH at 500 ppm [1, 7] | Neutral. Efficiency pH at 1000 ppm [1, 7] | Salt PPI [2, 8] | Boiling Point [4] [°C] | Salt PPI ([2]; ammonia salt is the benchmark) | Solubility Oil/Water ([5]; Table 2) | Solubility Oil/Water ([5]; Table 1) | pKa ([3]; Table 2, read-out: pKa) | Solubility Oil/Water [5, 9] | Solubility Oil/Water [5, 10] | SMILES | pKa ([3]; Table 2)
1 | 2.4 | 2.8 | 5.6 | <0.1 | 10.1 | – | – | – | – | – | – | – | – | – | – | – | – | CCCN(C)CCC [N-methyldipropylamine] | –
2 | 2.2 | 3.0 | 7.6 | 0.24 | – | 10.91 | – | – | – | – | – | – | – | – | – | – | – | CCCNCCC [di-N-propyl amine, di-N-propylamine] | –
3 | 2.4 | 5.4 | 6.8 | 0.18 | 7.1 | – | 2.4 | 5.4 | 6.8 | 0.18 | 116 | – | – | – | – | – | – | CN1CCOCC1 [N-methylmorpholine (NMM), N-methylmorpholine, reference compound] | –
4 | – | – | – | – | – | – | – | – | – | – | – | 1.0 | – | – | – | – | – | N [ammonia, reference compound] | –
5 | – | – | – | – | – | – | 7.54 | 8.87 | 9.25 | 0.30 | – | – | – | – | – | – | – | CN(C)CN(C)C [N,N,N′,N′-tetramethyldiaminomethane] | –
6 | – | – | – | – | – | – | 2.3 | 6.3 | 9.5 | 0.27 | 98 | – | Water | – | – | – | – | CN(C)C(C)(C)CO [2-Dimethylamino 2-methyl 2-propanol (DMAMP) 80% azeotrope so] [2-dimethylamino 2-methyl 1-propanol] | –
7 | – | – | – | – | – | – | 2.1 | 7.5 | 8.1 | 0.24 | 107 | – | Water | – | 10.1 | – | – | CN1CCCCC1 [N-methyl piperidine] | –
8 | – | – | – | – | – | – | – | – | – | 0.32 | 150 | – | Water | – | – | – | – | CN(C)C(C)(C)CO [Dimethyl tertiarybutanolamine (DMTBA), dimethyl tertiary butanolamine] | 8.9
9 | – | – | – | – | – | – | – | – | – | – | – | – | – | – | 10.2 | – | – | CN(C)C(C)(C)CO [2-dimethylamino 2-methyl 1-propanol] | –
10 | 2.4 | 4.1 | 5.0 | <0.1 | 5.61 | – | – | – | – | – | – | – | – | Water | – | – | – | CCN(O)CC [Diethylhydroxylamine] | –
11 | 3.7 | 5.5 | 7.6 | <0.1 | 8.2 | – | 3.7 | 5.5 | 7.6 | 0.18 | 132 | – | Water | Water | – | Water | Water | CN1CCN(C)CC1 [1,4-dimethylpiperazine] | –
12 | 2.2 | 6.8 | 8.1 | <0.1 | 10.3 | – | 2.2 | 6.8 | 8.1 | 0.10 | 81 | – | Water | Water | – | Water | Water | CN1CCCC1 [N-methylpyrrolidine] | –
13 | 1.9 | 2.0 | 5.0 | <0.1 | 10.3 | – | – | – | – | – | – | – | – | – | – | – | – | CCCCN(C)CCCC [N-methyldibutylamine] | –
14 | 2.2 | 3.6 | 5.9 | 0.12 | 7.7 | – | – | – | – | – | – | – | – | – | – | – | – | C#CCN(CC)CC [Diethylpropargylamine, diethylpropargylamine] | –
15 | – | – | – | – | – | – | – | – | – | 0.20 | 124 | – | Water | – | – | – | – | COCCCN(C)C [Dimethyl methoxypropyl-amine (DMMOPA), dimethyl methoxypropylamine] | –
16 | 2.6 | 6.5 | 8.5 | 0.38 | 8.89 | – | – | – | – | – | – | – | – | Water | – | – | – | NCc1ccco1 [Furfurylamine, furfurylamine] | –
17 | 1.4 | 8.5 | 9.6 | <0.1 | 9.9 | – | 1.4 | 8.5 | 9.6 | 0.30 | 87 | – | Water | Water | – | – | – | CC(C)C(C)N (stereo not shown) [1,2 Dimethyl propyl amine, 1,2 dimethylpropylamine] | –

Row | SMILES | Neutral. Efficiency pH at 250 ppm ([1]; Table 1, first set of tests) | Neutral. Efficiency pH at 500 ppm ([1]; Table 1, first set of tests) | Neutral. Efficiency pH at 1000 ppm ([1]; Table 1, first set of tests) | Salt PPI [2, 6] | pKa ([3]; Table 1, read-out: pKa) | pKa ([3]; Table 1) | Neutral. Efficiency pH at 250 ppm [1, 7] | Neutral. Efficiency pH at 500 ppm [1, 7] | Neutral. Efficiency pH at 1000 ppm [1, 7] | Salt PPI [2, 8] | Boiling Point [4] [°C] | Salt PPI ([2]; ammonia salt is the benchmark) | Solubility Oil/Water ([5]; Table 2) | Solubility Oil/Water ([5]; Table 1) | pKa ([3]; Table 2, read-out: pKa) | Solubility Oil/Water [5, 9] | Solubility Oil/Water [5, 10] | pKa ([3]; Table 2)
18 | CN(C)CCN(C)C [N,N,N′,N′-tetramethylethylenediamine] | 4.7 | 6.7 | 8.3 | 0.27 | 8.97 | – | 4.7 | 6.7 | 8.3 | 0.48 | 122 | – | Water | Water | – | – | – | 8.97
19 | CN(C)C [Trimethylamine (TMA), Trimethylamine, reference compound] | 2.6 | 8.0 | 8.8 | 0.10 | 9.76 | – | 2.6 | 8.0 | 8.8 | 0.10 | 2.87 | – | Water | Water | – | – | – | 9.76
20 | CN(C)C1CCCCC1 [Dimethylcyclohexylamine, dimethylcyclohexylamine] | 1.8 | 1.9 | 5.2 | 0.10 | 10 | – | – | – | – | – | – | – | – | – | – | – | – | –
